# Patent publication US6444787B1, “Method of isolating a peptide which immunologically mimics microbial carbohydrates including group B streptococcal carbohydrates and the use thereof in a vaccine” (Research Development Institute, Inc., priority 1997, dated 2002)
# Ends that are not written are not given here.
# Tested on: anti-GBS antibodies
# Assay: ELISA, binding of antibodies to synthetic peptide
# Design: species or system murine
# Conditions: peptide coated at 10 μg/ml; FIG. 1 panel A
# Protocol: Microtiter wells were coated with peptide at 10 μg/ml and then blocked with 1% BSA. Test antibodies were added to the wells, incubated and washed. Antibody binding was detected with alkaline phosphatase conjugated anti-Ig and then substrate. The values are A405, mean of duplicate or triplicate samples. […] The binding of all antibodies to BSA was<0.1.
# Capsular polysaccharide was coated directly onto microtiter wells.
sequence,measurement,value
FDTGAFDPDWPAC,Binding of monoclonal antibodies S7 and S9 to peptide,seen only with antibody S9
